Results published in patent publication US5286721A, “1-azabicyclo[3.2.0]hept-2-ene-2-carboxylic acid compounds” (Fujisawa Pharmaceutical Co., Ltd., priority 1990, dated 1994).

Tested on: S. aureus 6
Assay: In vitro antimicrobial activity (two-fold agar-plate dilution method)
Type: cell-based
Settings: Staphylococcus aureus, heart infusion agar (HI-agar), 10^6 viable cells per ml, 37° C., 20 hours, read-out: MIC (minimal inhibitory concentration)
Description: In vitro Antimicrobial Activity was determined by the two-fold agar-plate dilution method as described below.
One loopful of an overnight culture of a test strain in Trypticase-soy broth (10^6 viable cells per ml) was streaked on heart infusion agar (HI-agar) containing graded concentrations of the test compound, and the minimal inhibitory concentration (MIC) was expressed in terms of μg/ml after incubation at 37° C. for 20 hours.

Structure (SMILES): C[C@@H](O)[C@H]1C(=O)N2C(C(=O)O)=C(C3CN=CNC3)C[C@H]12 (stereo partly drawn) [Example 1, [5R,6S)-6-[(R)-1-hydroxyethyl]-3-[3,4,5,6-tetrahydropyrimidin-5-yl]-7-oxo-1-azabicyclo[3.2.0]hept-2-ene-2-carboxylic acid]
- MIC: ≤ 0.025 µg/mL
